The values that follow come from US20120088661A1, “FUNGICIDAL MIXTURES” (BASF SE, priority 2009, published 2012).

The test system of one test is Septoria glycines. As to the kind of experiment: Use Example M8: activity against Septoria glycines in the microtiter test (Septgl). As to conditions: Septoria glycines, read-out: Observed effect. It is filed as cell-based.
For a further test, the system named is Phytophthora infestans. As to the kind of experiment: microbe, parasite or virus in culture. The conditions noted are these: Phytophthora infestans, read-out: Observed effect, 16 ppm. It is filed as cell-based.
Another test has as its system Puccinia recondita. As to the kind of experiment: Use Example G3: greenhouse, protective activity against Puccinia recondita on wheat (brown rust of wheat) (Puccrt P1). The test is classed as in vivo, Puccinia recondita on wheat seedlings. As to the method:
The active compounds were prepared separately or jointly as a stock solution with 25 mg of active compound which was made up to 10 ml using a mixture of acetone and/or DMSO and the emulsifier Wettol EM 31 (wetting agent having emulsifying and dispersing action based on ethoxylated alkylphenols) in a volume ratio of solvent:emulsifier of 99:1. The mixture was then made up with water to 100 ml. This stock solution was diluted with the solvents/emulsifier/water mixture described to give the active compound concentrations stated below. Alternatively, the active compounds were used as commercial finished formulation and diluted with water to the stated active compound concentration. […]
The visually determined values for the percentage of infected leaf area were initially converted into a mean value and then converted into efficacies in % of the untreated control. […] The expected efficacies for the active compound combinations were determined using Colby's formula (Colby, S. R. “Calculating synergistic and antagonistic responses of herbicide combinations”, Weeds, 15, pp. 20-22, 1967) and compared to the observed efficacies.
Leaves of potted wheat seedlings were sprayed to run off point with an aqueous suspension having the active compound concentration stated below. […] The extent of rust fungus development on the leaves was then determined visually.

A further test relates to Alternaria solani. The test is classed as in vivo, Alternaria solani on tomato plants. As to conditions: 16 ppm.
Another test has as its system Phakopsora pachyrhizi. Kind of test: Use Example G4: greenhouse, curative activity against soybean rust caused by Phakopsora pachyrhizi (Phakpa K4). The test is classed as in vivo, Phakopsora pachyrhizi on soybean seedlings. As to the method:
(§1) The active compounds were prepared separately or jointly as a stock solution with 25 mg of active compound which was made up to 10 ml using a mixture of acetone and/or DMSO and the emulsifier Wettol EM 31 (wetting agent having emulsifying and dispersing action based on ethoxylated alkylphenols) in a volume ratio of solvent:emulsifier of 99:1. The mixture was then made up with water to 100 ml. This stock solution was diluted with the solvents/emulsifier/water mixture described to give the active compound concentrations stated below. Alternatively, the active compounds were used as commercial finished formulation and diluted with water to the stated active compound concentration. The active compound orysastrobin was used as a commercially available formulation, and diluted with water with reference to the active compound.
(§2) The visually determined values for the percentage of infected leaf area were initially converted into a mean value and then converted into efficacies in % of the untreated control. An efficacy of 0 means the same degree of infection as in the untreated control, an efficacy of 100 means 0% infection. The expected efficacies for the active compound combinations were determined using Colby's formula (Colby, S. R. “Calculating synergistic and antagonistic responses of herbicide combinations”, Weeds, 15, pp. 20-22, 1967) and compared to the observed efficacies.
Leaves of potted soybean seedlings were inoculated with a spore suspension of soybean rust (Phakpsora pachyrhizi). The pots were then placed in a chamber of high atmospheric humidity (90 to 95%) and 20 to 24° C. for 24 hours. During this time, the spores germinated and the germ tubes penetrated into the leaf tissue. The infected plants were then cultivated further in a greenhouse at temperatures between 23 and 27° C. and 60 to 80% relative atmospheric humidity. After three days, the plants were sprayed to run off point with the active compound solution described above at the active compound concentration stated below. After the spray coating had dried on, the test plants were cultivated in a greenhouse at temperatures between 23 and 27° C. and 60 to 80% relative atmospheric humidity for a further 10 days. The extent of the rust fungus development on the leaves was then determined visually in %.

The test system of the next test is Septoria tritici. As to the kind of experiment: Use Example G5: greenhouse, protective activity against Septoria leaf blotch of wheat caused by Septoria tritici (Septtr P1). It is filed as in vivo, Septoria tritici on wheat seedlings. As to the method:
as §1, §2
Leaves of potted wheat seedlings were sprayed to run off point with an aqueous suspension having the active compound concentration stated below. 24 hours after the spray coating had dried on, they were inoculated with an aqueous spore suspension of Septoria tritici. The test plants were then placed in a greenhouse at temperatures between 18 and 22° C. and a relative atmospheric humidity close to 100% for four days and then at temperatures between 18 and 22° C. and an atmospheric humidity of about 70%. After 21 days, the extent of the development of the disease was determined visually in % infection of the total leaf area.

The subject of another test is Botrytis cinerea. As to the kind of experiment: Use Example G2: greenhouse, activity against grey mold on bell pepper leaves caused by Botrytis cinerea, 1 day protective application (Botrci P1). It is filed as in vivo, Botrytis cinerea on bell pepper seedlings. As to conditions: 250 ppm. As to the method:
as §1, §2
Bell pepper seedlings were, after 2-3 leaves were well developed, sprayed to run off point with an aqueous suspension having the active compound concentrations stated below. The next day, the treated plants were inoculated with a spore suspension of Botrytis cinerea in a 2% biomalt solution. The test plants were then placed in a dark climatized chamber at 22 to 24° C. and high atmospheric humidity. After 5 days, the extent of the fungal infection on the leaves could be determined visually in %.

As for `O=C(Nc1ccccc1-c1ccc(Cl)cc1)c1cccnc1Cl` [II-24, boscalid], the inhibition of growth at 0.016 ppm with Septoria glycines (0.016 ppm) came out at 10%. In the test on Septoria glycines (0.04 ppm), the inhibition of growth at 0.04 ppm was found to be 9%. Moreover, the inhibition of growth at 16 ppm in the test with Phytophthora infestans amounted to 20%. Moreover, the Observed effect in the test on Puccinia recondita (1 ppm) was 13%.
Turning to mancozeb [II-18], the Observed effect in the test on Alternaria solani worked out at 0%; in the test with Phakopsora pachyrhizi (16 ppm) it was 7%; with Phakopsora pachyrhizi (63 ppm) it was 0%; in the test on Septoria tritici (16 ppm), 3%; in the test with Septoria tritici (63 ppm), 18%; in the test on Botrytis cinerea, 15%. Also, the Observed effect in the test with Puccinia recondita (4 ppm) was 5%.
